Source: ChEMBL document CHEMBL3639303, “Organic compounds” (2013)
pIC50: −log10 of the molar value.

The compounds below were run against T1, Renin (Homo sapiens, UniProt P00797) (assay: FRET Assay: Inhibition activity of renin using FRET assay.).
T1 sequence (P00797 whole entry): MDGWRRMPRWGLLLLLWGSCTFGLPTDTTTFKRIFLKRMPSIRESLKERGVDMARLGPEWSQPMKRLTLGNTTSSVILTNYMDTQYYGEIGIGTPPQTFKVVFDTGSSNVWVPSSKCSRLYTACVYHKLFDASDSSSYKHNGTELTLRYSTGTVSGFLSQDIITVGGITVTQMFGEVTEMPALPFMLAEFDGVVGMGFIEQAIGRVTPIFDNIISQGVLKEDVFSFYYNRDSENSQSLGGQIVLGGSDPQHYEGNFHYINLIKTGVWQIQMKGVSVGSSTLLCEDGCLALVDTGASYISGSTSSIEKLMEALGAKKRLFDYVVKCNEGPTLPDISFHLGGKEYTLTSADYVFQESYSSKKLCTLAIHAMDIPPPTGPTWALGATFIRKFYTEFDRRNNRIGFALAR

Row | Compound | pIC50
1 | CCOC[C@@H](CC(C)C)NC(=O)[C@@H]1CNC[C@H](C(=O)N(CC(C)C)c2cc(OC)c(C(C)C)cn2)C1 | 9.10
2 | CCOC[C@@H](CC(C)C)NC(=O)[C@@H]1CNC[C@H](C(=O)N(c2cc(OCCCOC)c(C(C)C)cn2)C2CC2)[C@@H]1O | 9.40
3 | CCOC[C@@H](CC(C)C)NC(=O)[C@@H]1CNC[C@H](C(=O)N(c2ccc(C(C)C)cn2)C2CC2)[C@@H]1O | 8.70
4 | CCOC[C@@H](CC(C)C)NC(=O)[C@@H]1CNC[C@H](C(=O)N(c2ccc(C(C)(C)OC)cn2)C2CC2)[C@@H]1O | 8.70

The remaining lines, values ahead:

Row | pIC50 | Compound
5 | 9.05 | CCOC[C@H](NC(=O)[C@@H]1CNC[C@H](C(=O)N(c2ccc(C(C)C)cn2)C2CC2)C1)C(C)C
6 | 9.05 | CCOC[C@@H](CC(C)C)NC(=O)[C@@H]1CNC[C@H](C(=O)N(c2cc(OC)c(C(C)C)cn2)C2CC2)C1
7 | 9.22 | CCOC[C@@H](CC(C)C)NC(=O)[C@@H]1CNC[C@H](C(=O)N(c2cc(OCC)c(CC)cn2)C2CC2)C1
8 | 9.52 | CCOC[C@@H](NC(=O)[C@@H]1CNC[C@H](C(=O)N(c2cc(OC)c(C(C)C)cn2)C2CC2)C1)C1CCCCC1
